# Measurements from PubChem BioAssay (NCI).
#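 Test compounds were applied to cells in 96-well plates for 48 hours at 5 doses. GI50 marks 50% less growth. TGI: total growth inhibition.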
# Key:
# Test in all cases: NCI-60 cell line screen, 48 h
# NCI-H226 lung = tested on: NCI-H226 lung
# NCI-H23 lung = tested on: NCI-H23 lung
# NCI-H460 lung = tested on: NCI-H460 lung
# NCI-H522 lung = tested on: NCI-H522 lung
# NCI/ADR-RES ovarian = tested on: NCI/ADR-RES ovarian
# OVCAR-3 ovarian = tested on: OVCAR-3 ovarian
# OVCAR-4 ovarian = tested on: OVCAR-4 ovarian
# OVCAR-5 ovarian = tested on: OVCAR-5 ovarian
# OVCAR-8 ovarian = tested on: OVCAR-8 ovarian
# PC-3 prostate = tested on: PC-3 prostate
# RPMI-8226 leukemia = tested on: RPMI-8226 leukemia
# RXF 393 renal = tested on: RXF 393 renal
# SF-268 CNS = tested on: SF-268 CNS
# SF-295 CNS = tested on: SF-295 CNS
# SF-539 CNS = tested on: SF-539 CNS
# SK-MEL-2 melanoma = tested on: SK-MEL-2 melanoma
# SK-MEL-28 melanoma = tested on: SK-MEL-28 melanoma
# SK-MEL-5 melanoma = tested on: SK-MEL-5 melanoma
# SK-OV-3 ovarian = tested on: SK-OV-3 ovarian
# SN12C renal = tested on: SN12C renal
# SNB-19 CNS = tested on: SNB-19 CNS
# SNB-75 CNS = tested on: SNB-75 CNS
# SR leukemia = tested on: SR leukemia
# SW-620 colon = tested on: SW-620 colon
# T-47D breast = tested on: T-47D breast
# TK-10 renal = tested on: TK-10 renal
# U251 CNS = tested on: U251 CNS
# UACC-257 melanoma = tested on: UACC-257 melanoma
# UACC-62 melanoma = tested on: UACC-62 melanoma
# UO-31 renal = tested on: UO-31 renal
structure (smiles),measurement,setting,value
Cc1ccc(C(=Nc2ccccc2)N=P(c2ccccc2)(c2ccccc2)c2ccccc2)cc1,TGI,NCI-H226 lung,9.38 µM
same,GI50,NCI-H23 lung,3.11 µM
same,TGI,NCI-H23 lung,12.5 µM
same,GI50,NCI-H460 lung,1220 nM
same,TGI,NCI-H460 lung,4.23 µM
same,GI50,NCI-H522 lung,1440 nM
same,TGI,NCI-H522 lung,9.73 µM
same,GI50,NCI/ADR-RES ovarian,3.61 µM
same,GI50,OVCAR-3 ovarian,1120 nM
same,GI50,OVCAR-4 ovarian,1530 nM
same,TGI,OVCAR-4 ovarian,> 31 µM
same,GI50,OVCAR-5 ovarian,2980 nM
same,GI50,OVCAR-8 ovarian,3.34 µM
same,TGI,OVCAR-8 ovarian,> 100 µM
same,GI50,PC-3 prostate,1740 nM
same,TGI,PC-3 prostate,4.04 µM
same,GI50,RPMI-8226 leukemia,1180 nM
same,TGI,RPMI-8226 leukemia,2860 nM
same,GI50,RXF 393 renal,695 nM
same,TGI,RXF 393 renal,2520 nM
same,GI50,SF-268 CNS,1790 nM
same,GI50,SF-295 CNS,875 nM
same,TGI,SF-295 CNS,7.12 µM
same,GI50,SF-539 CNS,2180 nM
same,TGI,SF-539 CNS,8.68 µM
same,GI50,SK-MEL-2 melanoma,1310 nM
same,TGI,SK-MEL-2 melanoma,5.44 µM
same,GI50,SK-MEL-28 melanoma,1630 nM
same,TGI,SK-MEL-28 melanoma,10 µM
same,GI50,SK-MEL-5 melanoma,739 nM
same,TGI,SK-MEL-5 melanoma,1930 nM
same,GI50,SK-OV-3 ovarian,1980 nM
same,TGI,SK-OV-3 ovarian,5.22 µM
same,GI50,SN12C renal,1410 nM
same,TGI,SN12C renal,9 µM
same,GI50,SNB-19 CNS,2120 nM
same,GI50,SNB-75 CNS,2440 nM
same,TGI,SNB-75 CNS,14.8 µM
same,GI50,SR leukemia,1670 nM
same,TGI,SR leukemia,14.9 µM
same,GI50,SW-620 colon,1260 nM
same,GI50,T-47D breast,1240 nM
same,GI50,TK-10 renal,1180 nM
same,TGI,TK-10 renal,4.14 µM
same,GI50,U251 CNS,1150 nM
same,GI50,UACC-257 melanoma,1320 nM
same,TGI,UACC-257 melanoma,3.74 µM
same,GI50,UACC-62 melanoma,1190 nM
same,TGI,UACC-62 melanoma,5.07 µM
same,GI50,UO-31 renal,1320 nM
same,TGI,UO-31 renal,3.8 µM
